pIC50: −log10 of the molar value. Values after ≈ are worked out from the molar mass of the structure shown. Values joined by “and” are separate entries in the source; they are usually repeats but may differ in a detail not shown here. Identical values can stand only once. Like-named read-outs stand apart in the source and are kept apart here.
Legend:
WI38 = assay: Toxicity in nontumor eukaryotic cell line; type: cell-based; conditions: 100 μM, the highest concentration tested
[1] = Plasma protein binding (RED); type: in vitro ADME; conditions: pH 7.4
Protocol: Plasma protein binding was measured using a Rapid Equilibrium Dialysis (RED) assay. Test compounds and control compounds were added to plasma at 10 μM and dialyzed against phosphate-buffered saline (PBS, pH 7.4) for 4 h at 37 °C. […] The percentage of drug bound to plasma proteins was calculated by comparing the analyte response in the plasma compartment with that in the buffer compartment.

CYP2C9 = CYP2C9 (Homo sapiens, UniProt P11712); assay: CYP inhibition; conditions: HLM, diclofenac substrate
Protocol: (§4) Cytochrome P450 inhibition was assessed in vitro using human recombinant enzymes in microsomal preparations. […] Enzyme activity was quantified by monitoring formation of substrate-specific metabolites, and percent inhibition was calculated relative to vehicle control.

S. dysgalactiae = assay: MIC (microbroth dilution); type: cell-based; conditions: for MIC: Streptococcus dysgalactiae
Method in brief: (§1)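 Broth microdilution MICs were run in tryptic soy broth, or for Streptococcus spp. in cation-adjusted Mueller Hinton broth with 2.5% lysed horse blood, using overnight stationary-phase cultures back-diluted. MIC was the lowest concentration with no visible growth, with OD600 also read. Some MICs included PMBN at 30 μg/mL final.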

[2] = Kinetic aqueous solubility; type: physicochemical; conditions: phosphate-buffered saline with 2% DMSO, pH 7.4, aqueous buffer, kinetic from dmso stock
Protocol: Kinetic aqueous solubility was determined using a standard LC-UV/MS-based assay. Test compounds were prepared from 10 mM DMSO stock solutions and diluted to a nominal concentration of 200 μM in phosphate-buffered saline (PBS, pH 7.4) containing 2% DMSO. Parallel dilutions in DMSO were used as reference standards. Samples were equilibrated at room temperature for 2 h with shaking, then filtered, and the filtrates were analyzed by LC-UV with mass spectrometric confirmation of the analyte peak. Solubility was determined by comparing the UV peak area of the PBS filtrate with those of the DMSO reference standards. The effective range of the assay was 10–200 μM.

E. faecium [3] = assay: MIC (microbroth dilution); type: cell-based, Enterococcus faecium; conditions: for MIC: Enterococcus faecium
Protocol: All bacteria were maintained on tryptic soy agar (TSA), except Streptococcus spp., which were maintained on Columbia agar plates containing 5% horse blood. All bacterial assays were carried out in tryptic soy broth (TSB), except for Streptococcus spp. which were grown in cation-adjusted Mueller Hinton broth containing 2.5% lysed horse blood. Bacteria were grown to stationary phase in liquid culture overnight, with shaking at 200 rpm, before being back diluted to the relevant starting concentration for each assay below. MICs were measured by the microbroth dilution method. […] Absorbance at OD600 was read on a CLARIOstar spectrophotometer (BMG Labtech) and the MIC was defined as the minimum concentration of compound where no visible growth was detected. The compounds were prepared as a DMSO stock and equivalent concentrations of DMSO had no effect on bacterial growth. MICs were also performed in the presence of the outer membrane permeator, polymyxin b nonapeptide (PMBN) following the same MIC method but with the following variation. The 2-fold dilution series of compound was prepared as above, then 50 μL of PMBN at a final concentration of 30 μg/mL was added to relevant wells, while 50 μL/well of blank media was added to the remaining wells. Bacteria were then added at 50 μL/well for a starting concentration as above. Thirty μg/mL of PMBN had no effect on bacterial growth. The MICs were read and defined as above. All animal procedures were performed by the contract research organization Pharmacology Discovery Services Taiwan in accordance with the Guide for the Care and Use of Laboratory Animals. The procedures were approved by the Institutional Ethics Committee of Pharmacology Discovery Services Taiwan, Ltd. (approval no. AB127662), in compliance with animal welfare legislation in Taiwan.

CYP2C19 = CYP2C19 (Homo sapiens, UniProt P33261); assay: CYP inhibition; conditions: HLM, omeprazole substrate; for CYP2C19 inhibition: 10 μM
Protocol: as §4

E. faecium [4] = assay: Mutation frequency and agar MIC; type: cell-based; conditions: NCTC 12204
Protocol: (§2) Mutation frequencies were performed on solid media at supra-inhibitory concentrations. First, the agar MIC was performed to account for any issues in solubility of compounds in solid media. Agar plates were prepared with 2-fold dilutions of compound.
(§3) For the mutation frequency assay, bacteria from an overnight culture were grown to mid exponential phase in liquid broth, then 100 μL was spread onto an agar plate containing compound at concentrations above the agar MIC. A Miles-Misra was also conducted on an antibiotic-free agar plate to determine the CFU/mL of the starting population. […] The mutation frequency was calculated by dividing the number of colonies on supra inhibitory con-centration plates by the starting population.

CYP2D6 = CYP2D6 (Homo sapiens, UniProt P10635); assay: CYP inhibition; conditions: HLM, dextromethorphan substrate, 10 μM
Protocol: as §4

Pseudomonas aeruginosa = assay: MIC (microbroth dilution); type: cell-based; conditions: for MIC50: in the presence of PMBN, n = 7 strains
Method in brief: as §1

WT E. coli DNA gyrase = target: T1, WT E. coli DNA gyrase (Escherichia coli, UniProt P0AES4+P0AES6); assay: DNA gyrase inhibition assay; type: biochemical
T1 construct: purchased Inspiralis Ltd. (Norwich, UK)
Protocol: Gyrase inhibition was determined through biochemical assay kits from Inspiralis Ltd. (Norwich, UK), according to manufacturer’s instructions, and as described previously. Briefly, 1U of enzyme was incubated with 0.5 μg of relaxed […] DNA in the presence of compound in 1% DMSO for 30 min at 37 °C. A control reaction contained no compound but still contained 1% DMSO. The reactions were stopped through Stop Buffer addition and the DNA separated through addition of chloroform/iso-amyl alcohol (24;1). Samples were run on a 1% agarose gel at 75 V for 2 h, which was then stained with 1 μg/mL ethidium bromide and visualized using a NuGenius gel imager (Syngene). The intensity of the supercoiled DNA band was quantified using Syngene software, and the inhibition of the supercoiling of the DNA by the compounds was calculated.

K. pneumoniae = assay: Mutation frequency and agar MIC; type: cell-based; conditions: M6
Protocol: as §2, §3

[5] = Pseudomonas aeruginosa, CFL 004 CRCN, read-out: MIC

Sequence of CYP2C19 (P33261 whole entry): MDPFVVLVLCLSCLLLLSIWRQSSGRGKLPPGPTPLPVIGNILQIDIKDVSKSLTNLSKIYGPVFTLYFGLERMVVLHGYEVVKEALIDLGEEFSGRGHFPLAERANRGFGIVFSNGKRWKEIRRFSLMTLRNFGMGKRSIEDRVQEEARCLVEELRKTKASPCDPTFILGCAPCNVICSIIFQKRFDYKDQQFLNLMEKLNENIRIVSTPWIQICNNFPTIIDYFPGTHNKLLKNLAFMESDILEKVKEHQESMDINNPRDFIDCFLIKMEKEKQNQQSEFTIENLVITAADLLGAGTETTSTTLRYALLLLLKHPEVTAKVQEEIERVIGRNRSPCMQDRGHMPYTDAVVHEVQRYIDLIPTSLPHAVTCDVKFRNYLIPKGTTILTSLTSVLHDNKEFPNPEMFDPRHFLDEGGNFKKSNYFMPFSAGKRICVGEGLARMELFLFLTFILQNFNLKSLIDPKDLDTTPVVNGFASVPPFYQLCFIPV
Sequence of CYP2D6 (P10635 whole entry): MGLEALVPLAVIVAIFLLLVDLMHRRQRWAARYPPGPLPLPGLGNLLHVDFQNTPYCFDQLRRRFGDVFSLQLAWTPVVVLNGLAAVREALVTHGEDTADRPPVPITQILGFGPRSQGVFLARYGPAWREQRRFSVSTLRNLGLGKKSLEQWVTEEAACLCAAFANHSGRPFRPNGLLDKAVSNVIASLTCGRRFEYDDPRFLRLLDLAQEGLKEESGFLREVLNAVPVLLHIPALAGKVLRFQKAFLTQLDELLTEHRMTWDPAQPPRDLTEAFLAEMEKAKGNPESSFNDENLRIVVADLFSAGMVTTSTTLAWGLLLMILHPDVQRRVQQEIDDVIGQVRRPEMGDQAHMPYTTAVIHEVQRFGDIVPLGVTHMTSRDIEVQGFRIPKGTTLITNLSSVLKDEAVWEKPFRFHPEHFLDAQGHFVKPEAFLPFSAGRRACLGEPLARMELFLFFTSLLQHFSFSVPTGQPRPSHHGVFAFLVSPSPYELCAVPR
T1 sequence (P0AES4 whole entry, one chain of several): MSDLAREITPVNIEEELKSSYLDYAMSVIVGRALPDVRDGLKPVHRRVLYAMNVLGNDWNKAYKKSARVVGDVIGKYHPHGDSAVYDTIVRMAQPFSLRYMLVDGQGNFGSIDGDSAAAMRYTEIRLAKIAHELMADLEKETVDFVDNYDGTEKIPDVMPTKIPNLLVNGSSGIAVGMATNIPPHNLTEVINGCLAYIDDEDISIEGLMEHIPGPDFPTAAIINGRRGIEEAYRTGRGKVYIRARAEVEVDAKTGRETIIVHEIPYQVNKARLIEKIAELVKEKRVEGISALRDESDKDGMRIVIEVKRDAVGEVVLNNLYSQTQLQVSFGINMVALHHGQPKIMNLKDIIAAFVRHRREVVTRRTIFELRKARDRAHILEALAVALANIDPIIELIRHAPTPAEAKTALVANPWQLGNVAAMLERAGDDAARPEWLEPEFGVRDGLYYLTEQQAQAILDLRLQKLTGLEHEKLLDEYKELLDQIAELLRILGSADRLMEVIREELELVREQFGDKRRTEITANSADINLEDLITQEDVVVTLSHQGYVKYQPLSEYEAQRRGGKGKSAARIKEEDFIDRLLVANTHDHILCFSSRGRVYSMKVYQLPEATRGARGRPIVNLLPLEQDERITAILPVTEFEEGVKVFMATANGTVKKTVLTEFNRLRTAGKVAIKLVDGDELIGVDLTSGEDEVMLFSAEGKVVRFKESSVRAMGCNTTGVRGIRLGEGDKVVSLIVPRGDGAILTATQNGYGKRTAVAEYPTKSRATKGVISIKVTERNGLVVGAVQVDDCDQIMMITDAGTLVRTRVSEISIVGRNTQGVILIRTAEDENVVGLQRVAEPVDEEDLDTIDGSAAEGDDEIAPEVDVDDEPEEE
Sequence of CYP2C9 (P11712 whole entry): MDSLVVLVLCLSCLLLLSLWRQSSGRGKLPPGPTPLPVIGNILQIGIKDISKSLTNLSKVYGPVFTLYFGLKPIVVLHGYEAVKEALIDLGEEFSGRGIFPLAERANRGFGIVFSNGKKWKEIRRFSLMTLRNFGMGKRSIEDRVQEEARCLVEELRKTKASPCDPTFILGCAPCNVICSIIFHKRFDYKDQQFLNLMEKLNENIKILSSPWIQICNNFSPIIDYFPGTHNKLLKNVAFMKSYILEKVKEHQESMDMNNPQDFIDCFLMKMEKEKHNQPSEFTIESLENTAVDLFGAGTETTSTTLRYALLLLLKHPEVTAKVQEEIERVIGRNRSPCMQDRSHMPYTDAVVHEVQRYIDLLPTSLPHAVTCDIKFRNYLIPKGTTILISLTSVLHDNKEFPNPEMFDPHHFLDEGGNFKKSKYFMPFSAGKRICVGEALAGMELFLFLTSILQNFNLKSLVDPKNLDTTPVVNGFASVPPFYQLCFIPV

SMILES | toxicity in WI38 (WI38) | fraction unbound at 4 h, 10 μM [1] | MIC (S. dysgalactiae; 10238, read-out: MIC) [µg/mL] | MIC (S. dysgalactiae; 13759, read-out: MIC) [µg/mL] | MIC (S. dysgalactiae; 13762, read-out: MIC) [µg/mL] | MIC (S. dysgalactiae; 81553) [µg/mL] | MIC range (S. dysgalactiae; n = 8) [µg/mL] | solubility at 2 h [2] [µM] | CYP2C19 inhibition (CYP2C19) [%] | Agar MIC (E. faecium [4]) [µg/mL] | CYP2D6 inhibition (CYP2D6) | MIC (Pseudomonas aeruginosa; CAS4, + PMBN) [µg/mL] | MIC (Pseudomonas aeruginosa; CFL 004 CRCN, + PMBN) [µg/mL] | MIC (Pseudomonas aeruginosa; GH12, + PMBN) [µg/mL] | MIC (Pseudomonas aeruginosa; NCTC 10662, + PMBN) [µg/mL] | MIC (Pseudomonas aeruginosa; NCTC 12903, + PMBN) [µg/mL] | MIC (Pseudomonas aeruginosa; NCTC 13359, + PMBN) [µg/mL] | MIC (Pseudomonas aeruginosa; PAO1 ΔmexB, + PMBN) [µg/mL] | MIC (Pseudomonas aeruginosa; [5]) [µg/mL] | MIC50 (Pseudomonas aeruginosa; Pseudomonas aeruginosa) [µg/mL] | also measured
Cc1cc(C)nc(N[C@@H]2CCN(c3c(F)cc4c(=O)c(C(=O)O)cn5c4c3OC[C@@H]5C)C2)n1 [Compound 50, (S)-10-((R)-3-((4,6-Dimethylpyrimidin-2-yl)amino)pyrrolidin-1-yl)-9-fluoro-3-methyl-7-oxo-2,3-dihydro-7H-[1,4]oxazino[2,3,4-ij]quinoline-6-carboxylic acid] | nontoxic | 0.28 | ≤ 0.03 | ≤ 0.03 | ≤ 0.03 | 0.125 (≈ 0.276 µM) | ≤ 0.03 to 0.125 | 156 (≈ 70.6 µg/mL) | < 10 | 2 | 3.804% and < 10% |  |  |  |  |  |  |  |  |  | inhibition at 10 µM (CYP2C9; human, human liver microsomes, probe diclofenac, CYP2C9 inhibition): 16.8%; MIC (S. dysgalactiae; 81251, read-out: MIC): ≤ 0.03 µg/mL; MIC (S. dysgalactiae; 84143, read-out: MIC): 0.06 µg/mL (≈ 0.132 µM); MIC (S. dysgalactiae; 84557, read-out: MIC): ≤ 0.03 µg/mL; MIC (S. dysgalactiae; 84574, read-out: MIC): 0.06 µg/mL (≈ 0.132 µM); MIC (S. dysgalactiae; n = 8, read-out: modal MIC): ≤ 0.03 µg/mL; MIC (E. faecium [3]; ATCC19434, ATCC 19434, read-out: MIC): 1 µg/mL (≈ 2.21 µM); MIC (E. faecium [3]; ATCC700221, VanA (ATCC 700221), read-out: MIC): 0.5 µg/mL (≈ 1.1 µM); MIC (E. faecium [3]; BAA2320, VanA (BAA-2320), read-out: MIC): 1 µg/mL (≈ 2.21 µM); MIC (E. faecium [3]; CCUG56431, VanB (CCUG 56431), read-out: MIC): 0.25 µg/mL (≈ 0.551 µM); MIC (E. faecium [3]; CCUG56858): 0.125 µg/mL (≈ 0.276 µM); MIC (E. faecium [3]; CCUG58354, VanD (CCUG 58354), read-out: MIC): 0.25 µg/mL (≈ 0.551 µM); MIC (E. faecium [3]; CCUG59167, VanA (TUH44-29; CCUG 59167), read-out: MIC): 1 µg/mL (≈ 2.21 µM); MIC range (E. faecium [3]; including VanA, VanB, and VanD phenotypes): 0.125 to 1 µg/mL; inhibition at 10 µM (CYP2C19; human, human liver microsomes, probe omeprazole, CYP2C19 inhibition): 9.87%
C[C@H]1COc2c(N3CC[C@@H](Nc4ncccn4)C3)c(F)cc3c(=O)c(C(=O)O)cn1c23 [Compound 46, (S)-9-Fluoro-3-methyl-7-oxo-10-((R)-3-(pyrimidin-2-ylamino)pyrrolidin-1-yl)-2,3-dihydro-7H-[1,4]oxazino[2,3,4-ij]quinoline-6-carboxylic acid] | nontoxic | 0.42 | 0.06 to 0.25 (≈ 0.141 to 0.588 µM) | 0.06 (≈ 0.141 µM) | 0.06 (≈ 0.141 µM) | 0.125 (≈ 0.294 µM) | 0.0625 to 0.125 | 183 (≈ 77.9 µg/mL) | 0.6 |  | 0.0% | 0.06 | 8 | 0.5 | ≤ 0.03 | ≤ 0.03 | 0.06 | ≤ 0.03 | > 32 | 0.06 | CYP2C9 inhibition (CYP2C9; 10 μM): 12.8%; MIC (S. dysgalactiae; 81251): 0.125 µg/mL (≈ 0.294 µM); MIC (S. dysgalactiae; 84143): 0.06 to 0.125 µg/mL (≈ 0.141 to 0.294 µM); MIC (S. dysgalactiae; 84557): 0.03 to 0.125 µg/mL (≈ 0.0705 to 0.294 µM); MIC (S. dysgalactiae; 84574): 0.06 to 0.125 µg/mL (≈ 0.141 to 0.294 µM); MIC (Pseudomonas aeruginosa; Pseudomonas aeruginosa, CAS4, read-out: MIC): 8 µg/mL (≈ 18.8 µM); MIC (Pseudomonas aeruginosa; Pseudomonas aeruginosa, GH12, read-out: MIC): > 32 µg/mL; MIC (Pseudomonas aeruginosa; Pseudomonas aeruginosa, GH100, read-out: MIC): 1 to 4 µg/mL (≈ 2.35 to 9.4 µM); MIC (Pseudomonas aeruginosa; Pseudomonas aeruginosa, NCTC10662, NCTC 10662, read-out: MIC): 8 µg/mL (≈ 18.8 µM); MIC (Pseudomonas aeruginosa; Pseudomonas aeruginosa, NCTC12903, NCTC 12903, read-out: MIC): 8 µg/mL (≈ 18.8 µM); MIC (Pseudomonas aeruginosa; Pseudomonas aeruginosa, NCTC13359, NCTC 13359, read-out: MIC): 4 to 32 µg/mL (≈ 9.4 to 75.2 µM); MIC (Pseudomonas aeruginosa; Pseudomonas aeruginosa, PAO1, PAO1, read-out: MIC): 4 to 8 µg/mL (≈ 9.4 to 18.8 µM); pIC50 (WT E. coli DNA gyrase): 6.17; Agar MIC (K. pneumoniae): 0.5 µg/mL
C[C@H]1COc2c(N3CCN(C)CC3)c(F)cc3c(=O)c(C(=O)O)cn1c23 [Levofloxacin, (S)-9-Fluoro-3-methyl-10-(4-methylpiperazin-1-yl)-7-oxo-2,3-dihydro-7H-[1,4]oxazino[2,3,4-ij]quinoline-6-carboxylic acid, reference compound] |  |  |  |  |  |  |  |  |  | 1 |  | ≤ 0.125 | 16 | 4 | ≤ 0.125 | ≤ 0.125 | 0.25 | ≤ 0.03 | 128 (≈ 354 µM) | 0.125 | MIC (Pseudomonas aeruginosa; PAO1, + PMBN): 0.125 µg/mL; MIC (Pseudomonas aeruginosa; Pseudomonas aeruginosa, CAS4): 2 µg/mL (≈ 5.53 µM); MIC (Pseudomonas aeruginosa; Pseudomonas aeruginosa, GH12): 64 µg/mL (≈ 177 µM); MIC (Pseudomonas aeruginosa; Pseudomonas aeruginosa, GH100): 0.25 µg/mL (≈ 0.692 µM); MIC (Pseudomonas aeruginosa; Pseudomonas aeruginosa, NCTC10662, NCTC 10662): 2 µg/mL (≈ 5.53 µM); MIC (Pseudomonas aeruginosa; Pseudomonas aeruginosa, NCTC12903, NCTC 12903): 4 µg/mL (≈ 11.1 µM); MIC (Pseudomonas aeruginosa; Pseudomonas aeruginosa, NCTC13359, NCTC 13359): 4 µg/mL (≈ 11.1 µM); MIC (Pseudomonas aeruginosa; Pseudomonas aeruginosa, PAO1): 0.5 µg/mL (≈ 1.38 µM); MIC (Pseudomonas aeruginosa; Pseudomonas aeruginosa, PAO1, PAO1): 2 µg/mL (≈ 5.53 µM); IC50 (WT E. coli DNA gyrase; wild-type E. coli DNA gyrase, read-out: IC50 (converted)): 526 nM; Agar MIC (K. pneumoniae): 0.03 µg/mL

— publication PMC13266999, “Designing Antibiotics with Inherent Resistance to Efflux as a Strategy to Revive Discovery against Multidrug-Resistant Pathogens” (Journal of Medicinal Chemistry, 2026)
